Tested on: Propionibacterium acnes (ATCC 11828)
Assay: Quantitative suspension assay (bactericidal activity)
Assay type: cell-based
Details: pH 5.5
Protocol: 1.0 ml of the bacterial test suspension (microbial count: 1.5−5.0×10^8 cfu/ml) and 1.0 ml distilled water is added to 8.0 ml of the product test solution. The stopwatch is started. At the end of the exposure time, 0.1 ml of the test mixture is added to 50 ml rinsing liquid (=test neutralization mixture, TNM, 10°). Two dilutions of the TNM are prepared by pipetting […] of TNM to 9.0 ml of tryptone-NaCl (represents a dilution 10^−2 of TNM before filtration) resp. 50 μl of TNM to 9.0 ml of tryptone-NaCl (represents a dilution 10^−3 of TNM before filtration). The TNM (in duplicate) and each of the dilutions are transferred to a membrane filter device fitted with a membrane filter (0.45 μm) and filtered immediately. Subsequently, the filter is washed with 150 ml distilled water. The membranes are transferred to agar plates. After incubation under appropriate conditions, colonies are counted and reported.
Neramexane-mesylate is tested at 4 different concentrations (w/w 0.1%, 0.5%, 2.0%, 5.0%) to assess its bactericidal activity against Propionibacterium acnes (ATCC 11828). In addition to the effect of the concentration of Neramexane, the relevance of the contact time with the bacterias is assessed at 4 different incubation times (5 min, 30 min, 6 h, 24 h).
After the desired incubation time, the complete elimination of the test compound from the assay is ensured by membrane filtration. Bacterial suspensions with a microbial count ranging from 1.5−5.0×10^8 cfu/ml are used. All assays are performed at the skin relevant pH of 5.5.
The read out is reduction of the bacterial number in the assay, expressed as log-reduction. This reduction of the bacterial count is correlated to the ability of a compound to kill the bacteria, thus, corresponding to its MBC value. A >5-fold log reduction is required for a surface-disinfection compound and a >3-fold log reduction for a hand-disinfection compound.

In the case of `CC1(C)CC(C)(C)CC(C)(N)C1.CS(=O)(=O)O` [Neramexane mesylate], the log-reduction (0.1%, contact time 5 min) is reported as less than 1.41, the log-reduction (0.1%, contact time 30 min) is reported as less than 1.41 and the log-reduction (0.1%, contact time 6 h) is reported as less than 1.41. The log-reduction (0.1%, contact time 24 h) was less than 1.41, the log-reduction (0.5%, contact time 5 min) was less than 1.41 and the log-reduction (0.5%, contact time 30 min) was less than 1.41. The log-reduction (0.5%, contact time 6 h) was 2.6, the log-reduction (2.0%, contact time 5 min) was less than 1.41 and the log-reduction (2.0%, contact time 6 h) was greater than 5.48. It also gave a log-reduction (2.0%, contact time 24 h) greater than 5.48, a log-reduction (5.0%, contact time 5 min) of 4.33 and a log-reduction (5.0%, contact time 30 min) greater than 5.48. The log-reduction (5.0%, contact time 6 h) was greater than 5.48 and the log-reduction (5.0%, contact time 24 h) was greater than 5.48.
